Target: T1, IRAK4 (Homo sapiens, UniProt Q9NWZ3)
T1 construct: C-terminal HiBiT-tagged Jurkat cells (polyclonal cell line or clone 8D5); endogenous in cells; host or cells: Jurkat cells (polyclonal cell line or clone 8D5), HiBiT-tagged
T1 sequence (Q9NWZ3 1-460): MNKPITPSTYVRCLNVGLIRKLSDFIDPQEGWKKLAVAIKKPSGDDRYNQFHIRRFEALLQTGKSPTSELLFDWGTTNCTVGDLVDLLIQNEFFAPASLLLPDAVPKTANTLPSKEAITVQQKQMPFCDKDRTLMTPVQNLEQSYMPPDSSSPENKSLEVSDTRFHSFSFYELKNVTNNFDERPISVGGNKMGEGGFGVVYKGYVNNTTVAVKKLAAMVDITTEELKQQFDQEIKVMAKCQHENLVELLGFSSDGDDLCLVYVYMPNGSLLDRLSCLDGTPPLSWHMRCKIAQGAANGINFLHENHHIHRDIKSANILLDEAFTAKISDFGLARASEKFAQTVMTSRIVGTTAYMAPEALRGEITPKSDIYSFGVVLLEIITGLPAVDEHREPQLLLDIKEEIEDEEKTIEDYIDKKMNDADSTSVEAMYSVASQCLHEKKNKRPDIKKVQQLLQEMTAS
Test: IRAK4 Degradation HiBit Assay
Type: cell-based
Conditions: C-terminal HiBiT-tagged Jurkat cells, 4 hrs incubation; for DC50: % IRAK4 remaining, four-parameter fit (IC50 used as DC50); for Dmax: from fit of % IRAK4 remaining, read-out: Dmax
How it was run: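 Jurkat cells carrying C-terminal HiBiT-tagged IRAK4 (polyclonal or clone 8D5) exposed to compound, 10 μM–0.1 nM final over 11 points, for 4 h at 32 °C. Remaining IRAK4 measured by lytic HiBiT/LgBiT luminescence relative to DMSO. DC50 and Dmax taken from four-parameter variable-slope fits.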

| Compound | DC50 | Dmax |
| --- | --- | --- |
| N#Cc1cnn2c(-c3cc(NC4CCOCC4)c(-c4nnc(N5CCN(CC6CCN(c7ccc([C@H]8CCC(=O)NC8=O)nc7)CC6)CC5)s4)cn3)ccc2c1 (single isomer, unassigned) [Example 116] | 100 nM | 111% |
| N#Cc1cnn2c(-c3cc(NC4CCOCC4)c(-c4nnc(N5CCN(CC6CCN(c7ccc([C@@H]8CCC(=O)NC8=O)nc7)CC6)CC5)s4)cn3)ccc2c1 (single isomer, unassigned) [Example 117] | 75 nM | 106% |
| CC(C)Nc1cc(-c2ccc3cc(C#N)cnn23)ncc1-c1nnc(N2CCN(CC3CCN(c4ccc([C@@H]5CCC(=O)NC5=O)cn4)CC3)CC2)s1 (single isomer, unassigned) [Example 118] | 49 nM | 110% |
| N#Cc1cnn2c(-c3cc(NC4CC4)c(-c4nnc(N5CCN(CC6CCN(c7ccc([C@@H]8CCC(=O)NC8=O)cn7)CC6)CC5)s4)cn3)ccc2c1 (single isomer, unassigned) [Example 119] | 30 nM | 111% |
| N#Cc1cnn2c(-c3cc(NC4CC4)c(-c4nnc(N5CCN(CC6CCN(c7ccc([C@@H]8CCC(=O)NC8=O)cc7)CC6)CC5)s4)cn3)ccc2c1 (single isomer, unassigned) [Example 120] | 68 nM | 109% |
| CC(C)Nc1cc(-c2ccc3cc(C#N)cnn23)ncc1-c1nnc(N2CC3CCC(C2)N3CC2CCN(c3ccc([C@@H]4CCC(=O)NC4=O)cc3)CC2)s1 (single isomer, unassigned) [Example 121] | 73 nM | 88% |
| CC(C)Nc1cc(-c2ccc3cc(C#N)cnn23)ncc1-c1nnc(N2CC3CCC(C2)N3CC2CCN(c3ccc([C@@H]4CCC(=O)NC4=O)cn3)CC2)s1 (single isomer, unassigned) [Example 122] | 58 nM | 105% |
| N#Cc1cnn2c(-c3cc(NC4CC4)c(-c4nnc(N5CC6CCC(C5)N6CC5CCN(c6ccc([C@@H]7CCC(=O)NC7=O)cc6)CC5)s4)cn3)ccc2c1 (single isomer, unassigned) [Example 123] | 80 nM | 96% |
| N#Cc1cnn2c(-c3cc(N[C@@H]4CCOC4)c(-c4nnc(N5CC6CCC(C5)N6CC5CCN(c6ccc([C@@H]7CCC(=O)NC7=O)cn6)CC5)s4)cn3)ccc2c1 (single isomer, unassigned) [Example 124] | 8 nM | 110% |
| N#Cc1cnn2c(-c3cc(NC4CC4)c(-c4nnc(N5CC6CCC(C5)N6CC5CCN(c6ccc([C@@H]7CCC(=O)NC7=O)cn6)CC5)s4)cn3)ccc2c1 (single isomer, unassigned) [Example 125] | 30 nM | 106% |
| CCNc1cc(-c2ccc3cc(C#N)cnn23)ncc1-c1nnc(N2CC3CCC(C2)N3CC2CCN(c3ccc([C@@H]4CCC(=O)NC4=O)cc3)CC2)s1 (single isomer, unassigned) [Example 126] | 43 nM | 108% |
| N#Cc1cnn2c(-c3cc(N[C@@H]4CCOC4)c(-c4nnc(N5CCN(CC6CCN(c7ccc([C@@H]8CCC(=O)NC8=O)cn7)CC6)CC5)s4)cn3)ccc2c1 (single isomer, unassigned) [Example 127] | 9 nM | 113% |
| N#CCNc1cc(-c2ccc3cc(C#N)cnn23)ncc1-c1nnc(N2CC3CCC(C2)N3CC2CCN(c3ccc([C@@H]4CCC(=O)NC4=O)cc3)CC2)s1 (single isomer, unassigned) [Example 128] | 6 nM | 111% |
| C[C@H](C#N)Nc1cc(-c2ccc3cc(C#N)cnn23)ncc1-c1nnc(N2CCN(CC3CCN(c4ccc([C@@H]5CCC(=O)NC5=O)cn4)CC3)CC2)s1 (single isomer, unassigned) [Example 129] | 5 nM | 113% |
| N#Cc1cnn2c(-c3cc(N[C@H]4CCOC4)c(-c4nnc(N5CCN(CC6CCN(c7ccc([C@@H]8CCC(=O)NC8=O)cn7)CC6)CC5)s4)cn3)ccc2c1 (single isomer, unassigned) [Example 130] | 22 nM | 112% |
| N#Cc1cnn2c(-c3cc(N[C@@H]4CCOC4)c(-c4nnc(N5CC6CCC(C5)N6CC5CCN(c6ccc([C@@H]7CCC(=O)NC7=O)cc6)CC5)s4)cn3)ccc2c1 (single isomer, unassigned) [Example 131] | 21 nM | 110% |
| N#CCNc1cc(-c2ccc3cc(C#N)cnn23)ncc1-c1nnc(N2CCN(CC3CCN(c4ccc([C@@H]5CCC(=O)NC5=O)cn4)CC3)CC2)s1 (single isomer, unassigned) [Example 132] | 13 nM | 111% |
| N#CCNc1cc(-c2ccc3cc(C#N)cnn23)ncc1-c1nnc(N2CC3CCC(C2)N3CC2CCN(c3ccc([C@@H]4CCC(=O)NC4=O)cn3)CC2)s1 (single isomer, unassigned) [Example 133] | 13 nM | 110% |
| N#Cc1cnn2c(-c3cc(NC4(C#N)CC4)c(-c4nnc(N5CC6CCC(C5)N6CC5CCN(c6ccc([C@@H]7CCC(=O)NC7=O)cn6)CC5)s4)cn3)ccc2c1 (single isomer, unassigned) [Example 134] | 20 nM | 111% |
| C[C@H](C#N)Nc1cc(-c2ccc3cc(C#N)cnn23)ncc1-c1nnc(N2CC3CCC(C2)N3CC2CCN(c3ccc([C@@H]4CCC(=O)NC4=O)cn3)CC2)s1 (single isomer, unassigned) [Example 135] | 5 nM | 108% |
| N#Cc1cnn2c(-c3cc(Nc4cnoc4)c(-c4nnc(N5CC6CCC(C5)N6CC5CCN(c6ccc([C@@H]7CCC(=O)NC7=O)cn6)CC5)s4)cn3)ccc2c1 (single isomer, unassigned) [Example 136] | 25 nM | 113% |
| N#Cc1cnn2c(-c3cc(N[C@@H]4CCOC4)c(-c4nnc(N5CCN(CC6CCN(c7ccc([C@H]8CCC(=O)NC8=O)cn7)CC6)CC5)s4)cn3)ccc2c1 (single isomer, unassigned) [Example 137] | 104 nM | 88% |
| C[C@H](C#N)Nc1cc(-c2ccc3cc(C#N)cnn23)ncc1-c1nnc(N2CC3CCC(C2)N3CC2CCN(c3ccc([C@H]4CCC(=O)NC4=O)cn3)CC2)s1 (single isomer, unassigned) [Example 142] | 12 nM | 96% |
| C[C@@H](C#N)Nc1cc(-c2ccc3cc(C#N)cnn23)ncc1-c1nnc(N2CC3CCC(C2)N3CC2CCN(c3ccc([C@H]4CCC(=O)NC4=O)cn3)CC2)s1 (single isomer, unassigned) [Example 143] | 72 nM | 99% |
| N#Cc1cnn2c(-c3cc(N[C@H]4CCOC4)c(-c4nnc(N5CCN(CC6CCN(c7ccc([C@H]8CCC(=O)NC8=O)cn7)CC6)CC5)s4)cn3)ccc2c1 (single isomer, unassigned) [Example 144] | 166 nM | 87% |
| C[C@@H](C#N)Nc1cc(-c2ccc3cc(C#N)cnn23)ncc1-c1nnc(N2CC3CCC(C2)N3CC2CCN(c3ccc([C@@H]4CCC(=O)NC4=O)cn3)CC2)s1 (single isomer, unassigned) [Example 145] | 22 nM | 113% |
| N#Cc1cnn2c(-c3cc(NC4CCOCC4)c(-c4nnc(N5CCN(CC6CCN(c7ccc(N8CCC(=O)NC8=O)c(F)c7)CC6)CC5)s4)cn3)ccc2c1 [Example 8, 7-(5-{5-[4-({1-[4-(2,4-dioxo-1,3-diazinan-1-yl)-3-fluorophenyl]piperidin-4-yl}methyl)piperazin-1-yl]-1,3,4-thiadiazol-2-yl}-4-[(oxan-4-yl)amino]pyridin-2-yl)pyrrolo[1,2-b]pyridazine-3-carbonitrile] | 29 nM | 110% |

From patent US12570662B2, “Substituted pyrrolo[1,2-b]pyridazines as bifunctional degraders of interleukin-1 receptor-associated kinases” (Nurix Therapeutics, Inc., priority 2021, dated 2026)
